For one assay, the system named is TIF-IA. As to the kind of experiment: Western blot of TIF-IA and Pol I in stimulated NIH3T3 cells. The format is cell-based. The conditions noted are these: 40 μM PD98059, 30 min. On the procedure:
Serum-starved NIH3T3 cells were stimulated for 30 min by 10% serum, 10 ng bFGF, 50 ng/ml EGF or 0.1 μM TPA in the absence or presence of 40 μM PD98059. A Western blot is shown with 50 μg lysate proteins and antibodies against unphosphorylated and phosphorylated ERK1/2 as well as Pol I (RPA116) and TIF-IA.
Similarly, the amount of both Pol I and TIF-IA remained the same in quiescent and serum-stimulated cells. On Western blots, TIF-IA from growing and quiescent cells appears as a closely spaced double-band (indicated by a dot and asterisk in FIG. 1B) that corresponds to differently phosphorylated forms of TIF-IA. After mitogenic stimulation, the faster migrating form was converted into the more slowly migrating TIF-IA moiety. The shift in electrophoretic mobility correlated with cellular pre-rRNA synthetic activity, i.e., was predominant 20-30 min after mitogenic stimulation and returned to normal levels after 2 hr. Activation of pre-rRNA synthesis and decrease in the electrophoretic mobility of TIF-IA was also observed after stimulation of quiescent cells with growth factors, e.g. bFGF, or EGF, or with the phorbol ester TPA (FIGS. 1C and D), a potent stimulus of the Ras-ERK pathway, through activation of protein kinase C.
On the technique in general: In western blotting, separated proteins are transferred to a membrane and probed.

The next assay has as its system Pol I transcription. The experiment in a line: Complementation of Pol I transcription in nuclear extracts from PD98059-treated FM3A cells. The format is biochemical. On the procedure: (C) TIF-IA, but not UBF, rescues Pol I transcription in extracts from PD98059-treated cells. Nuclear extracts from untreated or PD98059-treated FM3A cells were supplemented with 20 and 40 ng of purified TIF-IA and/or UBF (10 ng in lanes 7 and 9, 50 ng in lanes 3, 8 and 10).
(D) TIF-IA activates transcription in extracts from PD98059-treated cells in the presence of AMP-PNP and GMP-PNP. Nuclear extracts from PD98059-treated FM3A cells were supplemented with 40 ng of purified TIF-IA and assayed in the standard transcription system containing ATP and GTP (ATP, lanes 1, 2) or AMP-PNP and GMP-PNP (AMP-PNP, lanes 3, 4)
(D) ERK/RSK-dependent phosphorylation activates Pol I transcription in vitro. Nuclear extracts from PD98059-treated FM3A cells were supplemented with 40 ng of TIF-IA, 10 ng of HA-RSK, or 10 ng of HA-ERK as indicated, and transcriptional activity was assayed in the standard transcription system containing ATP and GTP (lanes 4-8) or AMP-PNP and GMP-PNP (lanes 9-13).
Nuclear extracts were prepared from exponentially growing (8×10^5 cells/ml), density-arrested or PD98059-treated (CN Bioscience, Bad Soden, Germany) 40 μM, 0.5 hr) or rapamycin-treated FM3A cells (ATCC, Manassas, USA). 25 μl assays contained 50 ng of template DNA (pMr600/EcoRI), 30 μg nuclear extract proteins and 12 mM Hepes-KOH, [pH8.0], 0.1 mM EDTA, 5 mM MgCl2, 80 mM KCl, 10 mM creatine phosphate, 12% (v/v) glycerol, 0.66 mM each of ATP, GTP and CTP, 0.01 mM UTP and 0.5 μCi [α-^32P]UTP (5000 Ci/mmol). After incubation for 60 min at 30° C., RNA was extracted and analyzed on non-denaturing 5% polyacrylamide gels
To test whether both TIF-IA and UBF, or TIF-IA alone, were targeted by ERK-mediated phosphorylation, nuclear extracts from untreated and PD98059-treated cells were assayed for rDNA transcription in the absence and presence of exogenous TIF-IA or UBF (FIG. 2C). If both UBF and TIF-IA were inactivated by PD98059, rescue of Pol I transcriptional activity would require both factors, whereas TIF-IA alone would be sufficient if it was the only factor that is inactivated by inhibition of the ERK pathway. […]

The next assay deals with TIF-IB/SL1. As to the kind of experiment: Co-immunoprecipitation of TIF-IB/SL1 with TIF-IA mutants from HEK293T cells. The assay is classed as binding, human. On the procedure: (B) A mutant that mimics phosphorylation of TIF-IA at S199 fails to interact with Pol I and TIF-IB. FLAG-tagged wild-type TIF-IA or the indicated point mutants were overexpressed in HEK293T cells and immunoprecipitated from cell lysates with anti-FLAG antibodies (M2 agarose). Co-precipitated Pol I and TIF-IB/SL1 were visualized on Western blots with anti-RPA116 and anti-TAFI110 antibodies.
Immunoprecipitations were carried out from human cells overexpressing FLAG-tagged TIF-IA. Cells were lysed in IP buffer, cleared by centrifugation at 10,000×g for 30 min, and the supernatants were incubated for 4 hr at 4° C. with anti-FLAG (M2) agarose (Sigma). To analyze the interaction of TIF-IA with TIF-IB/SL1, the immunoprecipitates were washed with IP buffer and TIF-IB/SL1 was visualized on immunoblots with α-TAFI110 antibodies. To monitor the interaction of TIF-IA with Pol I, the immunoprecipitates were washed with IP buffer containing 600 mM NaCl and Pol I was analyzed on Western blots using antibodies against the second largest subunit of Pol I (RPA116) or PAF67 (Seither et al., J. Biol. Chem. 382 (2001), 1163-1170).
Given the importance of mTOR-mediated alterations in the phosphorylation pattern on TIF-IA activity, one could predict that either phosphorylation of S199, dephosphorylation of S44 or both regulate the interaction of TIF-IA with the Pol I transcription apparatus. It was therefore examined whether the S→A or S→D point mutant(s) were capable of interacting with Pol I and/or TIF-IB/SL1. For this, TIF-IA was precipitated from cells overexpressing either FLAG-tagged wild-type TIF-IA or the respective S199 and S44 mutant(s), and co-precipitated Pol I and TIF-IB/SL1 were visualized on Western blots.

Consider `COc1cccc(-c2cc(=O)c3ccccc3o2)c1N` [PD98059], for which, in the assay with TIF-IA, the “effect on electrophoretic mobility shift of TIF-IA after stimulation” value was “prevented the electrophoretic mobility shift of TIF-IA”; the “effect on the amount of Pol I and TIF-IA” value was “does not affect the amount of Pol I and TIF-IA”.

On to “TIF-IA: wild-type human transcription initiation factor TIF-IA, accession No. AJ272050”, for which the “rescue of Pol I transcription in extracts from PD98059-treated cells” value is “activation of Pol I transcription by TIF-IA was also observed” with Pol I transcription (in the presence of AMP-PNP and GMP-PNP); “rescued” with Pol I transcription (standard transcription system containing ATP and GTP). Further, the “interaction with TIF-IB/SL1 (co-precipitated TAFI110)” value in the assay with TIF-IB/SL1 was “interacted with both Pol I and TIF-IB/SL1”.
